Experimental data published in US10905656B2, “Methods and compositions for treating arteriosclerotic vascular diseases” (GOLDEN BIOTECHNOLOGY CORPORATION, priority 2012, dated 2021).

What was measured:
[1] = system: mice with carotid artery ligation; assay: Carotid artery ligation model, neointima formation; type: in vivo, C57BL/6J mice; conditions: 60 mg/kg body weight oral gavage, from three days before ligation, 28 days; control higher than 3.0; p<0.001
Text: Arteries are vessels that carry blood away from the heart. The carotid arteries are blood vessels that supply blood to the head, neck and brain. One carotid artery is position on each side of the neck. The right common carotid artery branches from the brachiocephalic artery and extends up the right side of the neck. The left common carotid artery branches from the aorta and extends up the left side of the neck. Each carotid artery branches into internal and external vessels near the top of the thyroid. Following the study by Hsing-Chun Chung (Dissertation, 2008, Southern Taiwan University), the carotid artery ligation was conducted on the left common carotid artery in mice to induce neointimal thickening.
This experiment used 8-week-old C57BL/6J male mice having about 25 g of body weight, which were purchased from National Laboratory Animal Center. These mice were maintained at the Laboratory Animal center of National Defense Medical Center on a 12 hour dark/12 hour light cycle in air conditional rooms (18-26° C., 30%-70% humidity).
1. The animals were given Compound 1 by oral gavage three days prior to the surgery and were continuously fed with Compound 1 for 28 days by oral gavage.
2. […]

[2] = system: PDGF-stimulated A7r5 cells; assay: Wound scratching test, PDGF-stimulated smooth muscle cell migration; type: cell-based, Rattus norvegicus; conditions: 3 μg/ml, 24 hours
Experimental: 1. A7r5 cells (5×10^6 cells/ml) were seeded onto a 6-well cell culture plate and incubated at 37° C. overnight.
2. 1×PBS was used to wash the wells twice. Compound 1 with different concentrations in DMEM culture medium containing 1% FBS was added and pretreated for 20 hours.
3. A cross-shape acellular space was created by a sterile 200 μl pipette tip and washed twice with 1×PBS.
4. After removing PBS, 2 ml PDGF in DMEM culture medium containing 1% FBS were added. The cells were photographed by a microscope at 0, 6, 12 and 24 hours, respectively from the time of adding PDGF.
The inhibition of Compound 1 on migration of smooth muscle cells (A7r5 cells) was investigated in a wound scratching test by measuring PDGF-stimulated cell migration distance. The PDGF-stimulated cell culture without Compound 1 treatment was used as positive control.

LDLR mRNA = LDLR mRNA expression in HepG2 by RT-PCR; type: cell-based, human; conditions: HepG2, after addition of compound
Experimental: FIG. 10A-B show results of LDLR mRNA expression in HepG2 cell line induced by an exemplary cyclohexenone Compound 1. HepG2 cell line was serum-starved overnight and challenged with 20 μM Compound 1 at indicated time intervals (1A). Cells were then collected and the mRNA expression level of LDLR and GAPDH (internal control) were detected by RT-PCR. The relative expression level of LDLR to GAPDH was quantified by densitometry (1B). Experiments were conducted in triplicate. Bar represented as mean±SEM. * indicates p<0.05 and ** indicates p<0.01.
HepG2 cells were cultured in MEM alpha medium (Invitrogen/Gibco BRL, Grand Island, N.Y., USA). Cells were cultured at 37° C. in 5% CO2 in culture media supplemented with 10% fetal bovine serum (Invitrogen/Gibco BRL) and 100 U/ml streptomycin and penicillin (Invitrogen/Gibco BRL). For treatment, cells were seeded in six-well plates at 6.25×10^5 cells/well. On the following day, the media were changed to serum-free and the cells were serum-starved for 24 h. Compound 1 was dissolved in DMSO and diluted to the required concentration with serum-free medium. Cultures were then treated with diluted Compound 1 for the indicated time periods. […]
LDLR mRNA expression level was quantitative analysis by RT-PCR. […] The PCR products intensity was quantified by densitometry using Image-Pro Plus software (Media Cybernetics, Silver Spring, Md.).

[3] = system: PDGF-stimulated A7r5 cells; assay: PDGF-stimulated smooth muscle cell proliferation, MTT assay; type: cell-based, Rattus norvegicus; conditions: 3 μg/ml, 20 hours pretreatment, PDGF 24 hours
Text: (§1) MTT assay is commonly used to determine cell proliferation, percent of viable cells, and cytotoxicity. MTT (3[4,5-dimethylthiazol-2-yl]2,5-diphenyltetrazolium bromide) is a yellow dye, which can be absorbed by the living cells and be reduced to purplish blue formazan crystals by succinate tetrazolium reductase in mitochondria. Formazan formation can therefore be used to assess and determine the survival rate of cells. A solubilization solution (usually either dimethyl sulfoxide, an acidified ethanol solution, or a solution of the detergent sodium dodecyl sulfate in diluted hydrochloric acid) is added to dissolve the insoluble purple formazan product into a colored solution. The absorbance of this colored solution can be quantified by measuring at a certain wavelength (usually between 500 and 600 nm) by a spectrophotometer. The more surviving cells, the higher the absorbance. The percentage of cell survival (%)=OD value of experimental group÷OD value of control group×100%. Procedure
(§2) 1. Adherence of cells: 2×10^4 cells/ml/well of A7r5 cells were seeded onto a 24-well plate and incubated at 37° C. for 24 hours.
2. Dosing: 500 ul/well different concentrations of compound 1 were pretreated in culture medium containing 1% FBS/DMEM for 20 hours. […]
3. […] The survival rate of cells was calculated based on the measurement of absorption at the 570 nm wavelength by ELISA reader. […]

ERK1/2 = ERK1/2 phosphorylation in HepG2 by immunoblot; type: cell-based, human; conditions: HepG2, 1 h, immunoblot p-ERK1/2
Experimental: FIG. 11A-B show illustrative effective results of the exemplary cyclohexenone Compound 1 stimulates ERK1/2 phosphorylation in HepG2 cell line. (2A), HepG2 cell line was serum-starved overnight and challenged with the indicated concentrations of Compound 1 for 1 h. Whole cell lysates were then immunoblotted with phosphor-ERK1/2 antibody and reprobed with β-actin antibody. Duplicated membrane was probed with ERK1/2 antibody. (2B), the relative expression level of p-ERK1/2 to β-actin was quantified by densitometry. Experiments were conducted in triplicate. Bar represented as mean±SEM.
HepG2 cells were cultured in MEM alpha medium (Invitrogen/Gibco BRL, Grand Island, N.Y., USA). […]
Sixty micrograms of total protein in cell lysate, which was measured using Bradford assay (Sigma-Aldrich, St. Louis, Mo.), was resolved on 12.5% SDS polyacrylamide gels. […] Blots were blocked with 3% BSA and probed with a 1:1,000 dilution of antibodies to phospho-p44/42 (ERK1/2)(Thr202/Tyr204) (Cell Signaling Technology, USA), p44/42MAPK(ERK1/2) (Cell Signaling Technology, USA) or β-actin (Sigma-Aldrich, St. Louis, Mo.), then horse radish-peroxidase (HRP)-conjugated secondary antibody and detected by 3,3′-diaminobenzidine (DAB) substrate kit for peroxidase (Vector Laboratories, Burlingame, Calif.). […]

[4] = system: A7r5 cells (rat aortic smooth muscle cells); assay: MTT assay, cytotoxic effect on smooth muscle cells; type: cell-based; conditions: 0 μg/ml-3 μg/ml, 24 hours
Text: as §1
1. […]
3. […] The survival rate of cells was calculated based on the measurement of absorption at the 570 nm wavelength by ELISA reader.
(§3) Potential cytotoxicity of Compound 1 to smooth muscle cells was tested. […] As shown in FIGS. 2A/2B, the cytotoxic effect of Compound 1 at different concentrations on smooth muscle cells (A7r5) was determined via MTT assay (FIG. 2A) and LDH assay (FIG. 2B).

[5] = system: A7r5 cells (rat aortic smooth muscle cells); assay: Lactate dehydrogenase (LDH) activity assay, cytotoxicity; type: cell-based; conditions: 0 μg/ml-3 μg/ml, 24 hours
Text: Cells have plenty of lactate dehydrogenase (LDH). When cells are healthy, LDH cannot freely cross cell membrane. […] LDH activity in the culture medium is directly proportional to the number of dead cells. The cell viability can be measured quantitatively to detect absorbance by using colorimetric method at a wavelength of 492 nm. The change of the absorbance values come from the fact that LDH catalyzes the conversion of lactate to pyruvate with the concomitant production of NADH. The NADH, in the presence of diaphorase and tetrazolium salt INT, is used to drive the diaphorase-catalyzed production of red formazan product. The present experiment utilizes Cytotoxicity Assay Kit (Promega) to conduct culture medium LDH Quantitation assay.
as §2
2. Dosing: 500 ul/well different concentrations of compound 1 were formulated in culture medium containing 10% FBS/DMEM and incubated for 24 hours. […]
3. […] Absorbance was measured by ELISA reader at the 490 nm wavelength.
as §3

COC1=C(OC)C(O)C(C/C=C(\C)CC/C=C(\C)CCC=C(C)C)C(C)C1=O (centres unmarked) [Compound 1, 4-hydroxy-2,3-dimethoxy-6-methyl-5-(3,7,11-trimethyldodeca-2,6,10-trienyl)cyclohex-2-enone]
average N/M ratio (neointima area/medial area) [1]: 1.0
decrease in PDGF-stimulated smooth muscle cell migration [2]: about 50%
time at which LDLR mRNA expression was first increased (LDLR mRNA): 2 h
time at which the LDLR mRNA increase reached a significant level (LDLR mRNA; increased up to 6 h): 4 h
reduction of PDGF-stimulated smooth muscle cell proliferation [3]: about 50%
concentration enough to induce activation of ERK1/2 (ERK1/2): 0.5 µM
survival rate of cells (MTT assay) [4]: cell purification was not affected by the drug treatment
cytotoxicity (LDH assay) [5]: no cytotoxcity has been observed
